Experimental data taken from US20230330251A1, “METHODS FOR TREATING CANCERS WITH ANTIBODY DRUG CONJUGATES (ADC) THAT BIND TO 191P4D12 PROTEINS” (AGENSYS, INC., priority 2020, published 2023).

Key:
Format in all cases: in vivo, human
[1] = system: subjects with previously treated locally advanced or metastatic urothelial cancer; assay: EV-301: overall response rate, complete/partial response, disease control rate per RECIST V1.1 (response evaluable set)
Description: Subjects will be evaluated for response according to the RECIST V1.1. Imaging for both arms will be performed at baseline and every 56 days (±7 days) from the first dose of study treatment throughout the study until PFS1 is documented by radiological disease progression or the subject is lost to follow-up, death, withdraws study consent or starts a subsequent anti-cancer therapy.
CR is defined as disappearance of all target and nontarget lesions. Any pathological lymph nodes (whether target or nontarget) must have reduction in short axis to <10 mm from baseline measurement.
PR is defined as at least a 30% decrease in the sum of diameters (longest for nonnodal lesions, short axis for nodal lesions) of target lesions taking as reference to the baseline sum of diameters.
SD is defined as neither sufficient decrease to qualify for PR nor sufficient increase to qualify for progressive disease taking as reference the smallest sum of diameters while on study drug.
PD is defined as at least a 20% increase in the sum of diameters (longest for nonnodal lesions, short axis for nodal lesions) of the target lesions taking as reference the smallest sum on study (this includes the baseline sum if that is the smallest on study). […] The appearance of 1 or more new lesions is also considered progression.
The response evaluable set (RES) is defined as all subjects in FAS and with measurable disease at baseline and had at least 6 months follow up since randomization. RES will be used for primary efficacy analysis of response related endpoints, e.g., ORR and DCR.
The overall response rate (ORR) is defined as the proportion of subjects with complete or partial objective response based on the RECIST V1.1. The comparison of ORR between Arm A and Arm B was performed using a stratified CMH test. Same stratification factors used in time to event analyses will be used for the stratified CMH test. […] In addition, ORR for each arm was estimated and corresponding 95% confidence interval will be constructed. The primary analysis was performed using the RES.
The DCR is defined as the proportion of subjects with a complete or partial objective response or a stable disease based on RECIST V1.1. The comparison of DCR between Arm A and Arm B was performed using a stratified CMH test. Same stratification factors used in time to event analyses were used for the stratified CMH test. […] In addition, DCR for each arm was estimated and corresponding 95% confidence interval will be constructed. The primary analysis was performed using the RES.

[2] = system: metastatic urothelial cancer patients and non-metastatic urothelial cancer patients; assay: Phase 1 study of EV, escalating dose levels 0.5-1.25 mg/kg: safety, DLT, MTD
Method: EV will be administered at a dose of 1.25 mg/kg as an intravenous infusion over approximately 30 minutes on Days 1, 8, and 15 of each 28-day cycle. […] A maximum tolerated dose (MTD) was not reached in this study. At the 1 mg/kg dose level, 2 dose- limiting toxicities (DLTs) were observed: Grade 3 proctalgia (later changed to grade 2 by the investigator) thought related to radiation recall and Grade 4 hyperuricemia without clinical sequelae.
Moreover, dose reductions due to AEs were more frequent for the 1.25 mg/kg vs lower dose levels.
In the phase 1 study, rash and similar dermatologic AE's were common among patients treated with EV, and were seen more frequently at the highest dose. Although the exact etiology of dermatologic toxicities associated with EV is unclear at this time, due to the expression of nectin-4 in the skin, rash maybe an on target toxicity. The most common type of dermatological AE reported in ASG-22CE-13-2 was maculo-papular rash, rash, skin exfoliation, and skin pigmentation disorder. Most occurred early on (during cycle 1), and some were associated with pruritus. Mild rash due to EV should be treated using local supportive care as needed. Topical corticosteroids have been used along with antihistamines for pruritus as needed.

[3] = system: subjects with previously treated locally advanced or metastatic urothelial cancer; assay: EV-301: progression free survival (PFS1) per RECIST V1.1, investigator assessment
Description: For each subject, PFS1 is defined as the time from the date of randomization until the date of radiological disease progression (per RECIST V1.1), or until death due to any cause. If a subject has neither progressed nor died, the subject was censored at the date of last radiological assessment. Subjects who receive any further anticancer therapy for the disease before radiological progression were censored at the date of the last radiological assessment before the anticancer therapy started.
The efficacy endpoint of PFS1 was analyzed using the log-rank test stratified by ECOG PS (0 vs 1), regions of the world (Western EU, US or the rest of world) and liver metastasis (yes or no). Randomized treatment and the strata used for randomization was used for the analysis. In addition, stratified Cox proportional hazard model was used to estimate the hazard ratio and the corresponding 95% confidence interval. The median PFS1 was estimated using the Kaplan-Meier method and reported along with the corresponding 95% confidence interval by treatment arm.
The primary analysis was performed using the FAS. Additional sensitivity analyses for PFS1 was also be performed. Details are specified in the SAP.

[4] = All, Response-Evaluable Population

## enfortumab vedotin
[1]; [4]
  ORR, EV vs SC Absolute Difference: 22.7%
  Overall response rate (ORR), %: 40.6%
  Overall response rate (ORR), n/N: 117/288
[1]; RECIST v1.1, RES
  Best overall response: Complete response, %: (4.9) %
  Best overall response: Not evaluable, %: (12.8) %
  Best overall response: Partial response, %: (35.8) %
  Best overall response: Progressive disease, %: (15.3) %
  Best overall response: Stable disease, %: (31.3) %
[1]; RES
  Time to response, Median: 1.87 months
[1]; RES, investigator assessment, N = 288 EV, 296 chemotherapy
  Overall Response Rate (ORR), Confirmed, %: (40.6%)
[1]; RES, N = 288 EV, 296 chemotherapy
  Disease control rate, Patients, %: (71.9%)
[1]; of 288 (enfortumab vedotin) / of 296 (chemotherapy)
  complete response, number of patients: 14
[1]; response-evaluable population
  Disease control: 71.9%
  complete response, % of the patients: 4.9%
[2]; 1 mg/kg dose level, Grade 3 proctalgia, Grade 4 hyperuricemia
  dose-limiting toxicities (DLTs) observed: 2
[2]; 1.25 mg/kg
  DLT: No DLT was observed
[2]; 1.25 mg/kg vs lower dose levels
  dose reductions due to AEs: more frequent
[2]; across dose levels
  frequency of all TEAEs, AEs leading to withdrawal, and Grade 3-4 TEAEs: comparable across all dose levels
[2]; by dose level, primarily Grades 1-2
  Incidence of the most frequent drug-related AEs, such as diarrhea and rash: increased with increasing dose levels
[2]; dose levels 0.5, 0.75, 1 and 1.25 mg/kg
  maximum tolerated dose (MTD): not reached
[2]; phase 1 study, more frequent at the highest dose
  rash and similar dermatologic AE's: common
[3]; All
  Median PFS: 5.55 mo
  PFS, EV vs SC HR: 0.615
  Progression-free survival (PFS) Events, %: (66.8) %
  Progression-free survival (PFS) Events, n/N: 201/301
[3]; FAS, investigator assessment
  Median PFS: 5.55 Months
  PFS Events, %: (66.8%)
[3]; PADCEV vs chemotherapy
  reduction in risk of disease progression or death: 39%
